These results are taken from patent US20070224194A1, “Methods for Inhibiting Angiogenesis and/or Lymphangiogenesis” (LUDWIG INSTITUTE FOR CANCER RESEARCH, priority 2004, published 2007).

The star is where a group is joined. Decanoyl = CCCCCCCCCC(=O)*; CH2Cl = ClC*

The test system of experiment [1] is proteolytic processing of VEGF-D. The experiment is described as follows: Processing of VEGF-D secreted by 293EBNA cells expressing VEGF-D-FULL-N-FLAG (immunoprecipitation/Western blot). Type of experiment: cell-based, human. As to conditions: for proteolytic processing of full-length VEGF-D: 100 μM. The protocol:
293EBNA cells stably transfected with an expression construct encoding VEGF-C-FULL-N-Myc (full-length VEGF-C tagged with Myc at the N-terminus) or VEGF-D-FULL-N-FLAG (full-length VEGF-D tagged with FLAG at the N-terminus) secrete fully and partially processed forms of VEGF-C or VEGF-D into the culture medium (Joukov et al., EMBO J. 16:3898-3911 1997; Stacker et al., J. Biol. Chem. 274: 32127-32136, 1999). These cells were grown overnight in 24-well plates, seeded with 8×10^4 cells per well. At the time when cultures were initiated in these plates, growth medium was supplemented with Dec-RVKR-CMK (Calbiochem) (dissolved in methanol) to a final concentration of 0, 1, 10, 50 or 100 μM. Solvent control cultures were also established, in which the medium was supplemented with methanol at concentrations equal to those present in the cultures treated with inhibitor. After 18 hours of growth (at 37° C., 10% CO2 in a humidified environment), conditioned cell culture medium was removed from the cells and cleared by centrifugation (5 minutes, 250×g, 4° C.).
VEGF-C species were immunoprecipitated from conditioned medium by addition of anti-VEGF-C antibody that binds the VHD and C-terminal propeptide (R&D Systems). VEGF-D species were immunoprecipitated by addition of A2 antiserum that binds within the VHD of VEGF-D (Stacker et al., J. Biol. Chem. 274: 32127-32136, 1999). Immune complexes were allowed to form for 2 hours at 4° C. with gentle agitation and precipitated by addition of 10 μl of protein A sepharose beads and incubation for 2 hours at 4° C. with gentle agitation. Protein A sepharose complexes were recovered by centrifugation (5 minutes, 250×g, 4° C.) and washed twice with ice cold 50 mM Tris, 150 mM NaCl, pH 8.0. The precipitated VEGF-C and VEGF-D species were then analysed by Western blot using biotinylated antibodies against the VHD and C terminus of VEGF-C, or the VHD of VEGF-D (R&D Systems) and streptavidin-horse radish peroxidase conjugate (Zymed) (FIGS. 1 and 2). […]
The 293EBNA cell lines expressing VEGF-D-FULL-FLAG, VEGF-DΔC or VEGF-DΔN were seeded into 24-well plates (8×10^4 cells/well), in medium supplemented with Dec-RVKR-CMK dissolved in methanol, to a final concentration of 0, 1, 10, 50 or 100 μM. […] The precipitated VEGF-D species were then analysed by reducing SDS-PAGE and Western blotting using a biotinylated antibody against the VHD of human VEGF-D (R&D Systems), and Streptavidin-horse radish peroxidase conjugate (Zymed).
In general terms: A western blot detects proteins with antibodies after separation by electrophoresis.

The subject of experiment [2] is VEGF-D propeptide processing. Kind of experiment: VEGF-D processing by Balbc/3T3 cells that naturally produce VEGF-D. Type of experiment: cell-based. As to conditions: 100 μM. An excerpt:
Finally, the effect of dec-RVKR-CMK on VEGF-D processing by Balbc/3T3 cells that naturally produce this growth factor (i.e., in cells that had not been transfected so as to express VEGF-D) was examined.

For experiment [3], the system named is BaF3 cells expressing the VEGFR-2/EpoR chimeric receptor. Kind of experiment: BaF3 bioassay, VEGFR-2/EpoR chimeric receptor, [3H]thymidine incorporation. The conditions noted are these: paper example in present tense. Type of experiment: cell-based. From the text:
(§1) In order to test if a furin or broad-range PC inhibitor can block the biological effects of VEGF-D, mammalian cells are employed that proteolytically process VEGF-D, such as 293EBNA or Capan-1 pancreatic carcinoma cells. Derivatives of these cells harboring an expression construct for full-length VEGF-D are transfected with the shRNA construct for furin (as described here) or treated with a broad-range PC inhibitor such as decanoyl-Arg-Val-Lys-Arg-chloromethylketone (see, PCT WO 2005/112971 A1, the disclosure of which is incorporated herein by reference in its entirety). The inhibition of VEGF-D processing by these agents is confirmed by immunoprecipitation/Western blotting of the conditioned cell culture media using antibody that binds the VHD of VEGF-D. The conditioned cell culture media from cells treated with the inhibitors (and from cells in which these agents are omitted, i.e. “mock” treatments) are used for incubations with BaF3 pre-B cells expressing chimeric receptors consisting of the extracellular domains of VEGFR-2 or VEGFR-3 and the transmembrane and cytoplasmic domains of the erythropoietin receptor (EpoR) (Stacker et al., J. Biol. Chem., 274:34884-34892, 1999; Achen et al., Eur. J. Biochem., 267:2505-2515, 2000). […] The proliferation of the cells in response to the conditioned media containing VEGF-D is monitored by incorporation of [3H]thymidine into DNA. […]

In experiment [4] the test system is BaF3 cells expressing the VEGFR-3/EpoR chimeric receptor. Kind of experiment: BaF3 bioassay, VEGFR-3/EpoR chimeric receptor, [3H]thymidine incorporation. Type of experiment: cell-based. The conditions noted are these: paper example in present tense.
Description: as §1
Background: Incorporation of labelled thymidine or its analogues reports DNA synthesis.

In the case of “Decanoyl-Arg-Val-Lys-Arg-chloromethylketone (Decanoyl-RVKR-CH2Cl) [Dec-RVKR-CMK]”, the “abundance of fully and partially processed forms of VEGF-D” value in experiment [1] (0, 1, 10, 50 or 100 μM, 18 hours, Western blot) was “dramatically reduced in abundance in a dose-dependent manner”. For the same substance, the “proteolytic processing of full-length VEGF-D” value in experiment [1] (18 hours) is “totally blocked”; in experiment [1] (18 hours, listed as dec-RVKR-CMK), “complete inhibition”. In experiment [1] (concentrations lower than 100 μM), the “proteolysis of VEGF-D-FULL-N-FLAG” value is “incompletely inhibited”. In addition, the VEGF-D propeptide processing entry in experiment [2] was “almost completely blocked”. Also, the “proliferation of BaF3 VEGFR-2/EpoR cells induced by conditioned media of treated VEGF-D-expressing cells” value in experiment [3] is given as “do not induce significant proliferation”. The “proliferation of BaF3 VEGFR-3/EpoR cells induced by conditioned media of treated VEGF-D-expressing cells” value in experiment [4] is “do not induce significant proliferation”.
